According to US9908868B2, “Isoindolinone compounds as GPR119 modulators for the treatment of diabetes, obesity, dyslipidemia and related disorders” (SANOFI, priority 2014, dated 2018):

These compounds were tested against T1, human GPR119 (Homo sapiens, UniProt Q8TDV5) (assay: Functional cellular assay measuring GPR119-mediated cAMP release (HTRF) in HEK-293 cells stably expressing recombinant human GPR119). Details: cAMP response, cell line expressing human GPR119, 30 minutes at room temperature.
T1 construct: expressed in transfected cells
T1 sequence (Q8TDV5 1-335): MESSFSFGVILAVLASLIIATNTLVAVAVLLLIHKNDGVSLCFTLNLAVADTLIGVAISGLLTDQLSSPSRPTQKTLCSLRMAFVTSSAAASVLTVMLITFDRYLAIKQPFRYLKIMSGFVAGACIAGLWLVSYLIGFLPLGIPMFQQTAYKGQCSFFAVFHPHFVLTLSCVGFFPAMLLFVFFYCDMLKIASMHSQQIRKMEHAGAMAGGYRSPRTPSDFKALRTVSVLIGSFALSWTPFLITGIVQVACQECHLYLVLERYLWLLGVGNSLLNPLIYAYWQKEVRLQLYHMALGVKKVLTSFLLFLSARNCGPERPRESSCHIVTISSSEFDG
Format: cell-based
Procedure, shortened: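 HEK-293 cells stably expressing recombinant human GPR119, suspended at 400000 cells/mL in HBSS/20 mM HEPES/0.1% BSA/2 mM IBMX, exposed to compound for 30 minutes at room temperature. cAMP detected by HTRF (665/620 nm ratio) after 1 h with reagents in lysis buffer. EC50 taken as concentration giving 50% of maximal activation.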

EC50 [nM] | Structure (SMILES)
233 | CN(C)C(=O)CN1Cc2ccc(N3CC[C@@H](Oc4ccc(SC5CC5)nc4)C3=O)cc2C1=O [Example 2-20, 2-[6-[(3R)-3-[(6-cyclopropylsulfanyl-3-pyridyl)oxy]-2-oxo-pyrrolidin-1-yl]-1-oxo-isoindolin-2-yl]-N,N-dimethyl-acetamide]
207 | NC(=O)CN1Cc2ccc(N3CC[C@@H](Oc4ccc(C(=O)C5CC5)nc4)C3=O)cc2C1=O [Example 2-52, 2-[6-[(3R)-3-[[6-(cyclopropanecarbonyl)-3-pyridyl]oxy]-2-oxo-pyrrolidin-1-yl]-1-oxo-isoindolin-2-yl]acetamide]
448 | O=C(CN1Cc2ccc(N3CC[C@@H](Oc4ccc(OCC5CC5)nc4)C3=O)cc2C1=O)NC(CO)CO [Example 4-32, 2-[6-[(3R)-3-[[6-(cyclopropylmethoxy)-3-pyridyl]oxy]-2-oxo-pyrrolidin-1-yl]-1-oxo-isoindolin-2-yl]-N-[2-hydroxy-1-(hydroxymethyl)ethyl]acetamide]
202 | CN(C)C(=O)CN1Cc2ccc(N3CC[C@@H](Oc4ccc(C(=O)C5CC5)cc4)C3=O)cc2C1=O [Example 2-48, 2-[6-[(3R)-3-[4-(cyclopropanecarbonyl)phenoxy]-2-oxo-pyrrolidin-1-yl]-1-oxo-isoindolin-2-yl]-N,N-dimethyl-acetamide]
60 | CN(C)C(=O)CN1Cc2ccc(N3CC[C@@H](Oc4ccc(OCC5CC5)nc4)C3=O)cc2C1=O [Example 1-39, 2-[6-[(3R)-3-[[6-(cyclopropylmethoxy)-3-pyridyl]oxy]-2-oxo-pyrrolidin-1-yl]-1-oxo-isoindolin-2-yl]-N,N-dimethyl-acetamide]
77 | CN(C)C(=O)CN1Cc2c(F)cc(N3CC[C@@H](Oc4ccc(OCC(F)(F)F)nc4)C3=O)cc2C1=O [Example 6-01, 2-[4-fluoro-1-oxo-6-[(3R)-2-oxo-3-[[6-(2,2,2-trifluoroethoxy)-3-pyridyl]oxy]pyrrolidin-1-yl]isoindolin-2-yl]-N,N-dimethyl-acetamide]
807 | O=C(O)CNC(=O)CN1Cc2ccc(N3CC[C@@H](Oc4ccc(OCC5CC5)nc4)C3=O)cc2C1=O [Example 3-04, 2-[[2-[6-[(3R)-3-[[6-(cyclopropylmethoxy)-3-pyridyl]oxy]-2-oxo-pyrrolidin-1-yl]-1-oxo-isoindolin-2-yl]acetyl]amino]acetic acid]
> 100000 | CCOc1ccc(O[C@@H]2CCN(c3cc(F)c4c(c3)C(=O)N(C(C)(C)C)C4)C2=O)cn1 [Example 1-30, 2-tert-butyl-6-[(3R)-3-[(6-ethoxy-3-pyridyl)oxy]-2-oxo-pyrrolidin-1-yl]-4-fluoro-isoindolin-1-one]
6080 | CCOc1ccc(O[C@@H]2CCN(c3cc(F)c4c(c3)C(=O)N(CC(=O)O)C4)C2=O)cn1 [Example 5-02, 2-[6-[(3R)-3-[(6-ethoxy-3-pyridyl)oxy]-2-oxo-pyrrolidin-1-yl]-4-fluoro-1-oxo-isoindolin-2-yl]acetic acid]
14700 | CN(C)C(=O)CN1Cc2ccc(N3CC[C@@H](Oc4ccc(-n5cnnn5)cc4)C3=O)cc2C1=O [Example 2-44, N,N-dimethyl-2-[1-oxo-6-[(3R)-2-oxo-3-[4-(tetrazol-1-yl)phenoxy]pyrrolidin-1-yl]isoindolin-2-yl]acetamide]
87 | O=C(O)CN1Cc2c(F)cc(N3CC[C@@H](Oc4ccc(OCCC5CC5)nc4)C3=O)cc2C1=O [Example 3-03, 2-[6-[(3R)-3-[[6-(2-cyclopropylethoxy)-3-pyridyl]oxy]-2-oxo-pyrrolidin-1-yl]-4-fluoro-1-oxo-isoindolin-2-yl]acetic acid]
179 | CN(CCO)C(=O)CN1Cc2ccc(N3CC[C@@H](Oc4ccc(OCC(F)(F)F)nc4)C3=O)cc2C1=O [Example 1-45, N-(2-hydroxyethyl)-N-methyl-2-[1-oxo-6-[(3R)-2-oxo-3-[[6-(2,2,2-trifluoroethoxy)-3-pyridyl]oxy]pyrrolidin-1-yl]isoindolin-2-yl]acetamide]
541 | O=C(CN1Cc2ccc(N3CC[C@@H](Oc4ccc(OCC5CC5)nc4)C3=O)cc2C1=O)NC[C@H](O)CO [Example 4-34, 2-[6-[(3R)-3-[[6-(cyclopropylmethoxy)-3-pyridyl]oxy]-2-oxo-pyrrolidin-1-yl]-1-oxo-isoindolin-2-yl]-N-[(2S)-2,3-dihydroxypropyl]acetamide]
237 | CC1c2ccc(N3CC[C@@H](Oc4ccc(OCC5CC5)nc4)C3=O)cc2C(=O)N1CC(=O)N(C)C (stereo partly drawn) [Example 1-13, 2-[5-[(3R)-3-[[6-(cyclopropylmethoxy)-3-pyridyl]oxy]-2-oxo-pyrrolidin-1-yl]-1-methyl-3-oxo-isoindolin-2-yl]-N,N-dimethyl-acetamide]
56 | CN(C)C(=O)CN1Cc2ccc(N3CC[C@@H](Oc4ccc(CCCC5CC5)nc4)C3=O)cc2C1=O [Example 2-02, 2-[6-[(3R)-3-[[6-(3-cyclopropylpropyl)-3-pyridyl]oxy]-2-oxo-pyrrolidin-1-yl]-1-oxo-isoindolin-2-yl]-N,N-dimethyl-acetamide]
163 | CC(C)Sc1ccc(O[C@@H]2CCN(c3ccc4c(c3)C(=O)N(CC(=O)N(C)C)C4)C2=O)cn1 [Example 1-09, 2-[6-[(3R)-3-[(6-isopropylsulfanyl-3-pyridyl)oxy]-2-oxo-pyrrolidin-1-yl]-1-oxo-isoindolin-2-yl]-N,N-dimethyl-acetamide]
144 | COCCNC(=O)CN1Cc2ccc(N3CC[C@@H](Oc4ccc(OCC5CC5)nc4)C3=O)cc2C1=O [Example 4-02, 2-[6-[(3R)-3-[[6-(cyclopropylmethoxy)-3-pyridyl]oxy]-2-oxo-pyrrolidin-1-yl]-1-oxo-isoindolin-2-yl]-N-(2-methoxyethyl)acetamide]
326 | CCOc1ccc(O[C@@H]2CCN(c3cc(F)c4c(c3)C(=O)N(CC(=O)NC)C4)C2=O)cn1 [Example 4-13, 2-[6-[(3R)-3-[(6-ethoxy-3-pyridyl)oxy]-2-oxo-pyrrolidin-1-yl]-4-fluoro-1-oxo-isoindolin-2-yl]-N-methyl-acetamide]
218 | O=C(CN1Cc2ccc(N3CC[C@@H](Oc4ccc(Oc5ccc(F)cc5)nc4)C3=O)cc2C1=O)N1CCC(O)CC1 [Example 4-11, 6-[(3R)-3-[[6-(4-fluorophenoxy)-3-pyridyl]oxy]-2-oxo-pyrrolidin-1-yl]-2-[2-(4-hydroxy-1-piperidyl)-2-oxo-ethyl]isoindolin-1-one]
202 | CN(C)C(=O)CN1Cc2ncc(N3CC[C@@H](Oc4ccc(OCC5CC5)nc4)C3=O)cc2C1=O [Example 1-11, 2-[3-[(3R)-3-[[6-(cyclopropylmethoxy)-3-pyridyl]oxy]-2-oxo-pyrrolidin-1-yl]-5-oxo-7H-pyrrolo[3,4-b]pyridin-6-yl]-N,N-dimethyl-acetamide]
206 | O=C(CN1Cc2ccc(N3CC[C@@H](Oc4ccc(OCC5CC5)nc4)C3=O)cc2C1=O)N1CCC(O)CC1 [Example 4-03, 6-[(3R)-3-[[6-(cyclopropylmethoxy)-3-pyridyl]oxy]-2-oxo-pyrrolidin-1-yl]-2-[2-(4-hydroxy-1-piperidyl)-2-oxo-ethyl]isoindolin-1-one]
449 | CN(C)C(=O)c1nc2ccc(N3CC[C@@H](Oc4ccc(OCC5CC5)nc4)C3=O)cc2c(=O)n1C [Example 1-43, 6-[(3R)-3-[[6-(cyclopropylmethoxy)-3-pyridyl]oxy]-2-oxo-pyrrolidin-1-yl]-N,N,3-trimethyl-4-oxo-quinazoline-2-carboxamide]
9360 | CN(C)C(=O)CN1Cc2ccc(N3CC[C@@H](Oc4ccc(F)nc4)C3=O)cc2C1=O [Example 2-17, 2-[6-[(3R)-3-[(6-fluoro-3-pyridyl)oxy]-2-oxo-pyrrolidin-1-yl]-1-oxo-isoindolin-2-yl]-N,N-dimethyl-acetamide]
106 | C[S+]([O-])CN1Cc2ncc(N3CC[C@@H](Oc4ccc(Oc5ccc(F)cc5)nc4)C3=O)cc2C1=O (stereo partly drawn) [Example 1-55, 3-[(3R)-3-[[6-(4-fluorophenoxy)-3-pyridyl]oxy]-2-oxo-pyrrolidin-1-yl]-6-(methylsulfinylmethyl)-7H-pyrrolo[3,4-b]pyridin-5-one]
168 | O=C(CN1Cc2ccc(N3CC[C@@H](Oc4ccc(OCC5CC5)nc4)C3=O)cc2C1=O)NC1CC1 [Example 4-08, N-cyclopropyl-2-[6-[(3R)-3-[[6-(cyclopropylmethoxy)-3-pyridyl]oxy]-2-oxo-pyrrolidin-1-yl]-1-oxo-isoindolin-2-yl]acetamide]
556 | O=C(CN1Cc2ccc(N3CC[C@@H](Oc4ccc(OCC5CC5)nc4)C3=O)cc2C1=O)NC[C@@H](O)CO [Example 4-35, 2-[6-[(3R)-3-[[6-(cyclopropylmethoxy)-3-pyridyl]oxy]-2-oxo-pyrrolidin-1-yl]-1-oxo-isoindolin-2-yl]-N-[(2R)-2,3-dihydroxypropyl]acetamide]
75 | CCCC(=O)c1ccc(O[C@@H]2CCN(c3ccc4c(c3)C(=O)N(CC(=O)N(C)C)C4)C2=O)cc1 [Example 2-13, 2-[6-[(3R)-3-(4-butanoylphenoxy)-2-oxo-pyrrolidin-1-yl]-1-oxo-isoindolin-2-yl]-N,N-dimethyl-acetamide]
547 | CCOc1ccc(O[C@@H]2CCN(c3cc(F)c4c(c3)C(=O)N(CC(=O)NCCO)C4)C2=O)cn1 [Example 4-15, 2-[6-[(3R)-3-[(6-ethoxy-3-pyridyl)oxy]-2-oxo-pyrrolidin-1-yl]-4-fluoro-1-oxo-isoindolin-2-yl]-N-(2-hydroxyethyl)acetamide]
